# Laboratory results from US10822337B2, “TGF-β inhibitorC” (Rigel Pharmaceuticals, Inc., priority 2015, dated 2020).
# Legend:
# [1] = test system: TGF-β signaling (TGF-β pSMAD, MPC-11); assay: AlphaScreen SureFire SMAD3 (p-Ser423/425) assay, inhibition of TGF-β signaling; format: cell-based; details: Mus musculus, p-SMAD-3 (Ser423/425) in cell lysate after TGF-β stimulation
# Source text: (§1) Example 2: AlphaScreen® SureFire® SMAD3 (p-Ser423/425) Assay
# (§2) The p-SMAD-3 (Ser423/425) SureFire® assay has been designed to measure the phosphorylation of endogenous cellular p-SMAD-3 (Ser423/425) in cell lysates and is a system for the screening of both modulators of receptor activation (e.g. agonists and antagonists) as well as agents acting intracellularly, such as small molecule inhibitors of upstream events. The assay will measure p-SMAD-3 (Ser423/425) activation by either cloned or endogenous receptors, and can be applied to primary cells.
# (§3) 1× Lysis buffer: 1 ml of 5× Lysis buffer was diluted with 4 ml of sterile water. After dilution, excess 1× Lysis buffer can be frozen and thawed up to 5 times without loss in activity.
# (§4) P-SMAD-3 (Ser423/425) SureFire® Assay Protocols
# (§5) Step A: Preparation of Buffers
# (§6) Activation buffer: The buffer was warmed slowly to 37° C. and gently mixed to re-suspend. Activation buffer can be stored at room temperature with no loss in activity.
# (§7) Reaction buffer: The buffer was kept at 4° C. while in use.
# (§8) AlphaScreen® Protein A IgG Kit: The kit was stored at 4° C. in the dark.
# (§9) Reaction buffer+Activation buffer+AlphaScreen® Acceptor beads: Reaction buffer (40 parts), Activation Buffer (10 parts) and Acceptor beads (1 part) were mixed and the mixture was stored at room temperature and used the same day. Mixture was added to 384-well plates; excess mixturewas discarded.
# (§10) Dilution buffer+AlphaScreen® Donor beads: Dilution buffer (20 parts) and Donor beads (1 part) were mixed and the mixture was stored at room temperature and used the same day. Excess mixture was discarded.
# (§11) Assay control samples: After reconstitution in 250 μl of water, lysates were at −20° C. in single use aliquots.
# (§12) Step B: Preparation of Samples and Cells
# (§13) 96-well Assay Protocol for 293FT and RMS13 adherent cells can be carried out manually or in high throughput with liquid handling robots.
# (§14) The cells (80 μL of cells for 96 well plates) were plated in collagen coated tissue culture plates in RPMI or FreeStyle medium (Invitrogen) and incubated overnight. For manual analysis, 6 plates for GDF8, 6 plates for TGFβ, and optionally 6 plates for Alk5ca(ALKS constitutively active) were used.
# (§15) The compound dilution plates were prepared as follows: 12 μL of DMSO was transferred into first column of 96-well plate, and 16 μL of DMSO was transferred into columns 2-12 of the 96-well plate. 12 μL of compound solution was transferred into first column of the DMSO-containing 96-well plate. Three-fold dilution was performed up to column 10 of the DMSO-containing 96-well plate.
# (§16) Step C: Treatment and Analysis
# (§17) The plate containing cells were treated with compounds for about 10 minutes, and then ligand was added. GDF8 or TGFb was added to plates to stimulate. 293FL cells were stimulatedfor 90 minutes at 37° C.; and RMS13 cells were stimulated for 60 minutes at 37° C. The medium was then removed from the cells, and 1× Lysis Buffer (about 25 μL) was added and the plate was gently agitated on plate shaker for 5-10 minutes.
# (§18) The lysate (5 μL) was then placed into 384-well shallow plates avoiding the generation of bubbles. To this, the Reaction Buffer+Activation Buffer+AlphaScreen® Acceptor beadsmixture (5 μL) was added. The plate was sealed with adhesive cover and shielded from light (e.g., with metal foil), and agitated gently on plate shaker for 2 hours at room temperature.
# (§19) Dilution buffer+AlphaScreen® Donor beads (2 μL) was then added, and the plate was intubated on the plate shaker for an additional 1½ hours. After completion, the plate was read on Synergy-4 or Enspire plate reader, using AlphaScreen® pSMAD3® settings.
# (§20) Representative results for inhibition of GDF8 (data=GDF pSMAD (MPC11) (μM)) and TGF-β (data=TGF-β pSMAD (MPC-11) (μM)) signaling are shown in Table 1: […]
# [2] = test system: GDF8 signaling (GDF pSMAD, MPC11); assay: AlphaScreen SureFire SMAD3 (p-Ser423/425) assay, inhibition of GDF8 signaling; format: cell-based; details: Mus musculus, MPC-11, p-SMAD-3 (Ser423/425) in cell lysate after GDF8 stimulation
# Source text: as §1, §2, §3, §4, §5, §6, §7, §8, §9, §10, §11, §12, §13, §14, §15, §16, §17, §18, §19, §20
IC50 [1] [nM],IC50 [2] [nM],Structure (SMILES)
369,65,"Cc1cccc(-c2nn3c(c2-c2ccc4nccn4c2)CCC3)c1 [Compound 18, 6-(2-(m-Tolyl)-5,6-dihydro-4H-pyrrolo[1,2-b]pyrazol-3-yl)imidazo[1,2-a]pyridine]"
251,106,"Cn1cnc2ccc(-c3c(-c4ccc(F)c(F)c4)nn4c3CCC4)cc21 [Compound 85, 6-(2-(3,4-Difluorophenyl)-5,6-dihydro-4H-pyrrolo[1,2-b]pyrazol-3-yl)-1-methyl-1H-benzo[d]imidazole]"
2590,371,"Fc1ccc(F)c(-c2nn3c(c2-c2ccc4cn[nH]c4c2)CCC3)c1 [Compound 193, 6-(2-(2,5-Difluorophenyl)-5,6-dihydro-4H-pyrrolo[1,2-b]pyrazol-3-yl)-1H-indazole]"
87.6,24,"Cn1cnc2ccc(-c3c(-c4cc(F)c(F)cc4F)nn4c3CCC4)cc21 [Compound 114, 1-Methyl-6-(2-(2,4,5-trifluorophenyl)-5,6-dihydro-4H-pyrrolo[1,2-b]pyrazol-3-yl)-1H-benzo[d]imidazole]"
6060,901,"Fc1ccccc1-c1nn2c(c1-c1ccc3cn[nH]c3c1)CCC2 [Compound 134, 6-(2-(2-Fluorophenyl)-5,6-dihydro-4H-pyrrolo[1,2-b]pyrazol-3-yl)-1H-indazole]"
203,47.7,"Cc1cccc(-c2nn3c(c2-c2ccc4nccnc4c2)OCC3)c1 [Compound 52, 7-(Quinoxalin-6-yl)-6-(m-tolyl)-2,3-dihydropyrazolo[5,1-b]oxazole]"
3740,699,"COc1ccc(-c2nn3c(c2-c2ccc4ncsc4c2)CCC3)cc1 [Compound 100, 6-(2-(4-Methoxyphenyl)-5,6-dihydro-4H-pyrrolo[1,2-b]pyrazol-3-yl)benzo[d]thiazole]"
1310,570,"COc1ccc(F)c(-c2nn3c(c2-c2ccc4nccn4c2)CCC3)c1 [Compound 164, 6-(2-(2-Fluoro-5-methoxyphenyl)-5,6-dihydro-4H-pyrrolo[1,2-b]pyrazol-3-yl)imidazo[1,2-a]pyridine]"
188,80.8,"Cc1cccc(-c2nn3c(c2-c2ccc4ncn(C)c4c2)OCCC3)c1 [Compound 41, 3-(1-Methyl-1H-benzo[d]imidazol-6-yl)-2-(m-tolyl)-6,7-dihydro-5H-pyrazolo[5,1-b][1,3]oxazine]"
2590,643,"Cc1cccc(-c2nn3c(c2-c2ccc4c(cnn4C)c2)CCC3)c1 [Compound 10, 1-Methyl-5-(2-(m-tolyl)-5,6-dihydro-4H-pyrrolo[1,2-b]pyrazol-3-yl)-1H-indazole]"
549,84.2,"Fc1ccc(-c2nn3c(c2-c2ccc4ncsc4c2)CCC3)c(F)c1Cl [Compound 158, 6-(2-(3-Chloro-2,4-difluorophenyl)-5,6-dihydro-4H-pyrrolo[1,2-b]pyrazol-3-yl)benzo[d]thiazole]"
512,221,"Fc1ccc(-c2nn3c(c2-c2ccc4cn[nH]c4c2)CCC3)cc1Cl [Compound 143, 6-(2-(3-Chloro-4-fluorophenyl)-5,6-dihydro-4H-pyrrolo[1,2-b]pyrazol-3-yl)-1H-indazole]"
2150,924,"Fc1ccccc1-c1nn2c(c1-c1ccc3nccn3c1)CCC2 [Compound 135, 6-(2-(2-Fluorophenyl)-5,6-dihydro-4H-pyrrolo[1,2-b]pyrazol-3-yl)imidazo[1,2-a]pyridine]"
214,68.6,"Cn1cnc2ccc(-c3c(-c4cccc(C(F)(F)F)c4)nn4c3OCC4)cc21 [Compound 60, 7-(1-Methyl-1H-benzo[d]imidazol-6-yl)-6-(3-trifluoromethylphenyl)-1,2-dihydropyrazolo[5,1-b]oxazole]"
133,67,"Clc1cccc(-c2nn3c(c2-c2ccc4ncsc4c2)CCC3)c1 [Compound 26, 6-(2-(3-Chlorophenyl)-5,6-dihydro-4H-pyrrolo[1,2-b]pyrazol-3-yl)benzo[d]thiazole]"
70.8,36.2,"FC(F)(F)Oc1cccc(-c2nn3c(c2-c2ccc4ncnn4c2)CCC3)c1 [Compound 127, 6-(2-(3-Trifluoromethoxyphenyl)-5,6-dihydro-4H-pyrrolo[1,2-b]pyrazol-3-yl)-[1,2,4]triazolo[1,5-a]pyridine]"
5560,872,"Clc1ccccc1-c1nn2c(c1-c1ccc3ncsc3c1)CCC2 [Compound 120, 6-(2-(2-Chlorophenyl)-5,6-dihydro-4H-pyrrolo[1,2-b]pyrazol-3-yl)benzo[d]thiazole]"
1650,322,"COc1ccc(-c2nn3c(c2-c2ccc4cn[nH]c4c2)CCC3)cc1 [Compound 99, 6-(2-(4-Methoxyphenyl)-5,6-dihydro-4H-pyrrolo[1,2-b]pyrazol-3-yl)-1H-indazole]"
797,414,"Cc1c(F)ccc(-c2nn3c(c2-c2ccc4cn[nH]c4c2)CCC3)c1F [Compound 168, 6-(2-(2,4-Difluoro-3-methylphenyl)-5,6-dihydro-4H-pyrrolo[1,2-b]pyrazol-3-yl)-1H-indazole]"
1340,430,"COc1c(F)ccc(-c2nn3c(c2-c2ccc4ncnn4c2)CCC3)c1F [Compound 163, 6-(2-(2,4-Difluoro-3-methoxyphenyl)-5,6-dihydro-4H-pyrrolo[1,2-b]pyrazol-3-yl)-[1,2,4]triazolo[1,5-a]pyridine]"
41.9,28.3,"Fc1ccc(Cl)cc1-c1nn2c(c1-c1ccc3ncsc3c1)CCC2 [Compound 175, 6-(2-(5-Chloro-2-fluorophenyl)-5,6-dihydro-4H-pyrrolo[1,2-b]pyrazol-3-yl)benzo[d]thiazole]"
42.1,21.2,"Cn1cnc2ccc(-c3c(-c4cccc(C(F)(F)F)c4)nn4c3CCC4)cc21 [Compound 33, 1-Methyl-6-(2-(3-trifluoromethylphenyl)-5,6-dihydro-4H-pyrrolo[1,2-b]pyrazol-3-yl)-1H-benzo[d]imidazole]"
677,439,"FC(F)(F)Oc1cccc(-c2nn3c(c2-c2ccc4sncc4c2)CCC3)c1 [Compound 128, 5-(2-(3-Trifluoromethoxyphenyl)-5,6-dihydro-4H-pyrrolo[1,2-b]pyrazol-3-yl)benzo[d]isothiazole]"
212,74,"Fc1cc(F)c(-c2nn3c(c2-c2ccc4nccnc4c2)CCC3)cc1Cl [Compound 191, 6-(2-(5-Chloro-2,4-difluorophenyl)-5,6-dihydro-4H-pyrrolo[1,2-b]pyrazol-3-yl)quinoxaline]"
1440,626,"COc1c(F)ccc(-c2nn3c(c2-c2ccc4[nH]ncc4c2)CCC3)c1F [Compound 161, 5-(2-(2,4-Difluoro-3-methoxyphenyl)-5,6-dihydro-4H-pyrrolo[1,2-b]pyraozl-3-yl)-1H-indazole]"
1950,330,"Fc1cccc(-c2nn3c(c2-c2ccc4nccnc4c2)CCC3)c1 [Compound 82, 6-(2-(3-Fluorophenyl)-5,6-dihydro-4H-pyrrolo[1,2-b]pyrazol-3-yl)quinoxaline]"
350,97.9,"FC(F)(F)c1cccc(-c2nn3c(c2-c2ccc4ncsc4c2)CCC3)c1 [Compound 35, 6-(2-(3-Trifluoromethylphenyl)-5,6-dihydro-4H-pyrrolo[1,2-b]pyrazol-3-yl)benzo[d]thiazole]"
